Assays:
Type in all cases: ADME, organism-based
[1] = Drug level in semen of healthy human at […] administered twice daily measured after 2 to 4 hrs by HPLC; settings: in vivo
[2] = Ratio of drug level in semen to blood in healthy human at […] administered twice daily measured 5 hrs post dosing by HPLC; settings: male
[3] = Drug level in semen of healthy human at […] administered twice daily measured on day 5 by HPLC; settings: male, read-out: Drug uptake
[4] = Drug level in semen of healthy human at […] administered twice daily measured 5 hrs post dosing by HPLC; settings: male, read-out: Drug uptake
[5] = Ratio of drug level in semen to blood in healthy human at […] administered twice daily measured on day 5 by HPLC; settings: male
[6] = test system: Blood; assay: Drug level in blood of healthy human at […] administered twice daily measured after 2 to 4 hrs by HPLC; settings: in vivo
[7] = Drug level in blood of healthy human at […] administered twice daily measured on day 5 by HPLC; settings: read-out: Drug uptake
[8] = Ratio of drug level in semen to blood in healthy human at […] administered twice daily measured after 2 to 4 hrs by HPLC; settings: male

Drug uptake [1]: 953 ng/mL | Kp at 5 h [2]: 1.42 | concentration at 5 day [3]: 212 ng/mL | concentration at 5 h [4]: 345 ng/mL | Kp at 5 day [5]: 3.78 | Drug uptake [6]: 651 ng/mL | concentration at 5 day [7]: 51 ng/mL | Kp [8]: 1.62
SMILES: Cc1nnc(C(=O)NC(C)(C)c2nc(C(=O)NCc3ccc(F)cc3)c(O)c(=O)n2C)o1 [RALTEGRAVIR]

From ChEMBL document CHEMBL1671688, “Raltegravir penetration in seminal plasma of healthy volunteers” (Antimicrob Agents Chemother, 2010)
